Laboratory results: patent US20250345307A1, “SYNTHETIC […] BROAD-SPECTRUM ANTIVIRAL ACTIVITIES AND USES THEREOF” (priority 2020, published 2025)
Entries after “also recorded” stand apart in the source; their conditions may differ. Where two headings read alike, the source gives them in different places.

Columns and labels:
HCoV-229E [1] = assay: microbe, parasite or virus in culture; type: cell-based, human coronavirus 229E
MERS-CoV [2] = assay: microbe, parasite or virus in culture; type: cell-based, Middle East respiratory syndrome coronavirus
LASV = assay: microbe, parasite or virus in culture; type: cell-based, Lassa mammarenavirus; conditions: for EC50: Mammarenavirus lassaense, Hepatocyte, in Mus musculus
CCHFV = assay: microbe, parasite or virus in culture; type: cell-based, Crimean-Congo hemorrhagic fever virus; conditions: for EC50: Orthonairovirus haemorrhagiae, Hepatocyte, in Mus musculus
ZIKV = assay: Antiviral activity against ZIKV (strain 976 Uganda) in A549 cells, intracellular ZIKV genomes by qRT-PCR; type: cell-based; conditions: Zika virus
HCoV-229E [3] = type: cell-based, human coronavirus 229E
HCoV-229E [4] = type: cell-based, human coronavirus 229E; remark: listed apart in the source
HCoV-229E [5] = assay: Immunofluorescence of nsp8 and dsRNA in HCoV-229E-infected MRC-5 cells; type: cell-based, human coronavirus 229E; conditions: MRC-5, MOI 1, 24 hpi
HCoV-229E [6] = type: cell-based, human coronavirus 229E; remark: listed apart in the source
HEV = type: cell-based, hepatitis E virus
[7] = system: eIF4A-dependent translation; assay: cells; type: cell-based; conditions: for inhibition at 0.01 µM: read-out: inhibition of translation of the (AG)15 construct
SARS-CoV-2 [8] = assay: microbe, parasite or virus in culture; type: cell-based, severe acute respiratory syndrome coronavirus 2
SARS-CoV-2 [9] = type: cell-based, severe acute respiratory syndrome coronavirus 2
SARS-CoV-2 [10] = assay: Immunofluorescence of viral dsRNA in SARS-CoV-2-infected Vero E6 cells; type: cell-based, severe acute respiratory syndrome coronavirus 2; conditions: Vero E6, MOI 1, 24 h p.i.
SARS-CoV-2 [11] = type: cell-based, severe acute respiratory syndrome coronavirus 2; remark: listed apart in the source
NHBE cells = assay: Cytotoxicity in differentiated NHBE cells by light microscopy; type: cell-based, human; conditions: 100 nM
murine hepatocytes = conditions: for CC50: mouse
HCoV-229E [12] = conditions: Müller et al. [2020]; read-out: EC50 reported previously for HCoV-229E; cited from earlier work
MERS-CoV [13] = conditions: read-out: EC50 reported previously for MERS-CoV; cited from earlier work
[14] = system: persistently HEV-infected A549 cells; conditions: 2 nM, 72 h
A549 cells = conditions: human
tumor growth = conditions: xenograft mouse model; cited from earlier work
[15] = mice, cited from earlier work
[16] = Middle East respiratory syndrome-related coronavirus, MRC5

Molecule: CONC(=O)[C@H]1[C@@H](O)[C@@]2(O)c3c(OC)cc(OC)cc3O[C@@]2(c2ccc(OC)cc2)[C@@H]1c1ccccc1 [CR-31-B (−)]
- EC50 (HCoV-229E [1]): 2.88 nM
- EC50 (HCoV-229E [1]; Human coronavirus 229E, MRC5): 3.49 nM
- EC50 (MERS-CoV [2]): 1.87 nM
- MERS-CoV titer reduction (MERS-CoV [2]): about 5 log phases
- EC50 (MERS-CoV [2]; [16]): 2.09 nM
- antiviral activity against LASV and CCHFV (in words) (LASV): potent antiviral activity
- virus titer drop, LASV-infected cells (LASV): approximately 4 log
- EC50 (LASV): 36.1 nM
- EC50 (LASV; read-out: EC50 values): 20 to 50 nM
- virus titer drop, CCHFV-infected cells (CCHFV): ~3 log
- EC50 (CCHFV): 20 nM
- EC50 (ZIKV; A549 cells, MOI 0.1, ZIKV genomes by qRT-PCR, 24 hpi, read-out: EC50): 1.13 nM
- Coronavirus N-protein levels (HCoV-229E [3]): strongly reduced
- genomic and subgenomic RNA levels of HCoV-229E (HCoV-229E [4]): reduced
- formation of viral replication/transcription complexes (HCoV-229E [5]): reduced
- infectious virus production (HCoV-229E [6]): undetectable levels
- reduction of virus titer in the supernatant (HCoV-229E [6]): about 1.5 orders of magnitude
- antiviral effect on extracellular HEV RNA levels (HEV): slightly weaker; also recorded: some antiviral activity
- induction of luciferase activity [7]: 1.5 fold
- reporter activity, VP35-HP only [7]: about twofold
- reporter activity, VP35-HP+(AG)5 [7]: reduced back to basic levels
- sensitivity of translation, EBOV VP35 5′-UTR [7]: insensitive
- sensitivity to eIF4A-dependent translation inhibition, 5′-UTRs of SARS-CoV-2, HCoV-229E and MERS-CoV [7]: similarly sensitive
- sensitivity to translation inhibition, 5′-UTRs of HCoV-229E, MERS-CoV and EBOV VP30 [7]: similarly sensitive
- sensitivity, HEVgt3c-Purine 5′-UTR [7]: became sensitive
- inhibition at 0.01 µM [7]: ~80%
- selectivity index (CC50/EC50) (SARS-CoV-2 [8]): > 50
- EC50 (SARS-CoV-2 [8]; Severe acute respiratory syndrome coronavirus 2, Vero C1008, 24 h): ~1.8 nM
- Viral nucleocapsid (N) protein levels (SARS-CoV-2 [9]): drastically reduced; also recorded: moderately reduced
- replicative organelles active in viral RNA synthesis (dsRNA) (SARS-CoV-2 [10]): profound reduction
- SARS-CoV-2 replication / titers (SARS-CoV-2 [11]): undetectable levels
- reduction of SARS-CoV-2 titers (SARS-CoV-2 [11]): about 4 logs
- reduction of production of infectious virus progeny (SARS-CoV-2 [11]): approximately 1.5 log steps
- cytotoxicity by light microscopy (NHBE cells): No obvious cytotoxicity
- cytotoxicity (in words) (MRC-5 cells): no major cytotoxicity
- CC50 (MRC-5 cells; human): > 5000 nM
- reduction of cell viability (MRC-5 cells; human): 10-25%
- cytotoxicity (in words) (murine hepatocytes): no detectable cytotoxicity
- CC50 (murine hepatocytes): > 5000 nM
- EC50 (HCoV-229E [12]): 2.88 nM
- EC50 (MERS-CoV [13]): 1.87 nM
- reduction of cell viability [14]: no major cytotoxic effects
- cytotoxicity (in words) (Vero E6 cells): No major cytotoxicity
- cell viability reduced by (Vero E6 cells; African green monkey): 10-25%

Molecule: CONC(=O)[C@@H]1[C@H](O)[C@]2(O)c3c(OC)cc(OC)cc3O[C@]2(c2ccc(OC)cc2)[C@H]1c1ccccc1 [CR-31-B (+)]
- antiviral activity against LASV and CCHFV (in words) (LASV): no antiviral effects
- Coronavirus N-protein levels (HCoV-229E [3]): no detectable effect
- infectious virus production (HCoV-229E [6]): did not significantly reduce viral replication
- Viral nucleocapsid (N) protein levels (SARS-CoV-2 [9]): not affected
- SARS-CoV-2 replication / titers (SARS-CoV-2 [11]): did not affect viral replication
- cytotoxicity (in words) (MRC-5 cells): no major cytotoxicity
- reduction of cell viability [14]: no major cytotoxic effects

Molecule: COC(=O)[C@H]1[C@@H](O)[C@@]2(O)c3c(OC)cc(O[C@@H]4O[C@@H]([C@H](O)CO)CO[C@H]4OC)cc3O[C@@]2(c2ccc(OC)cc2)[C@@H]1c1ccccc1 [Silvestrol, methyl(1R,2R,3S,3aR,8bS)-6-[[(2S,3R,6R)-6-[(1R)-1,2-dihydroxyethyl]-3-methoxy-1,4-dioxan-2-yl]oxy]-1,8b-dihydroxy-8-methoxy-3a-(4-methoxyphenyl)-3-phenyl-2,3-dihydro-1H-cyclopenta[b][1]benzofuran-2-carboxylate, reference compound]
- EC50 (HCoV-229E [1]; Human coronavirus 229E, MRC5): 3 nM
- EC50 (MERS-CoV [2]; [16]): 1.3 nM
- antiviral activity against LASV and CCHFV (in words) (LASV): potent antiviral activity
- virus titer drop, LASV-infected cells (LASV): approximately 4 log
- EC50 (LASV): 50.7 nM
- EC50 (LASV; read-out: EC50 values): 20 to 50 nM
- virus titer drop, CCHFV-infected cells (CCHFV): ~3 log
- EC50 (CCHFV): 28.5 nM
- EC50 (ZIKV; A549): 1.08 nM
- infectious virus production (HCoV-229E [6]): undetectable levels
- reduction of virus titer in the supernatant (HCoV-229E [6]): similar
- antiviral effect on extracellular HEV RNA levels (HEV): antiviral activity
- induction of luciferase activity [7]: 1.5 fold
- inhibitory effect, destabilized HEV 5′-UTR hairpin [7]: gradual loss of the inhibitory effect
- luciferase activity, HEVgt3c 5′-UTR [7]: reduced luciferase activity
- reporter activity, VP35-HP only [7]: sufficient to mediate translation inhibition
- reporter activity, VP35-HP+(AG)5 [7]: slightly increased translation inhibition
- sensitivity of translation, EBOV VP35 5′-UTR [7]: sensitive
- sensitivity to translation inhibition, 5′-UTRs of HCoV-229E, MERS-CoV and EBOV VP30 [7]: similarly sensitive
- sensitivity, HEVgt3c-Purine 5′-UTR [7]: became sensitive
- inhibition at 0.01 µM [7]: ~55%
- SARS-CoV-2 replication / titers (SARS-CoV-2 [11]): completely abolished
- CC50 (MRC-5 cells; human): > 10000 nM
- cytotoxicity (in words) (murine hepatocytes): no detectable cytotoxicity
- CC50 (murine hepatocytes): > 5000 nM
- CC50 (A549 cells): 9.42 nM
- tumor growth (tumor growth): reduced tumor growth efficiently

Molecule: CR-31-B
- cytotoxic effects (in words) (MRC-5 cells): no major cytotoxic effects
- reduction of cell viability [14]: not cytotoxic
- tumor growth (tumor growth): reduced tumor growth efficiently
- serum levels of aminotransferases (ALT and AST), albumin, total bilirubin, creatinine ([15]; two weeks after cessation of treatment): not significantly changed
- body weight, number of blood cells [15]: did not change
- toxicity in the gastrointestinal tract [15]: no toxicity could be observed
